Experimental data: patent US20250122174A1 (Shenzhen Yuanli Shenwan Innovative Medicine Co., Ltd., priority 2022, published 2025)

Each molecule was assayed against HPK1 (Homo sapiens (Human), UniProt Q92918) (assay: HPK1 Inhibition Assay (ADP-Glo kinase assay)). Conditions: ATP 10 μM.
Format: biochemical
Method in brief: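 ADP-Glo luminescence read-out after 1 h room-temperature kinase reaction with 10 μM ATP and 0.1 μg/ml MBP. Recombinant human HPK1 at 7.5 ng/μl; buffer 40 mM Tris pH 7.5, 20 mM MgCl2. Compounds serially diluted 5-fold over 10 points from 10 mM DMSO stock.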

Sequence of HPK1 (Q92918 1-346 limits assumed): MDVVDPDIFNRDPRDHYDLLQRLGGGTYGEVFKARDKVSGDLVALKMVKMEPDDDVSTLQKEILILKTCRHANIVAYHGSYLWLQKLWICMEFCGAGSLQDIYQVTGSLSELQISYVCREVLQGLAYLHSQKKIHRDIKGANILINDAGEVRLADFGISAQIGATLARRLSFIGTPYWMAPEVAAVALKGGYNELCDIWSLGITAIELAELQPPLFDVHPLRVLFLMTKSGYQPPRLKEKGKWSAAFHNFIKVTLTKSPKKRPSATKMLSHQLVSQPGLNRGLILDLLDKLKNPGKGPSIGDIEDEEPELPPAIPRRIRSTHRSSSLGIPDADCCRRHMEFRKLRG

IC50, < 100 nM:
Cn1c(C2(C(F)(F)F)CC2)nc2c(N3C[C@H](N)C4(CC4)C3)c(NC(=O)c3ccc(=O)n(-c4c(F)cccc4F)n3)ccc21 [Example 149, (R)-N-(4-(7-amino-5-azaspiro[2.4]heptan-5-yl)-1-methyl-2-(1-(trifluoromethyl)cyclopropyl)-1H-benzo[d]imidazol-5-yl)-1-(2,6-difluorophenyl)-6-oxo-1,6-dihydropyridazine-3-carboxamide]
Cc1nc2c(N3C[C@H](N)C(C)(C)C3)c(NC(=O)c3ccc(=O)n(-c4c(F)cccc4F)n3)ccc2n1[C@H]1CCOC1 [Example 150, N-(4-((R)-4-amino-3,3-dimethylpyrrolidin-1-yl)-2-methyl-1-((S)-tetrahydrofuran-3-yl)-1H-benzo[d]imidazol-5-yl)-1-(2,6-difluorophenyl)-6-oxo-1,6-dihydropyridazine-3-carboxamide]
Cc1nc2c(N3C[C@H](N)C4(CC4)C3)c(NC(=O)c3ccc(=O)n(-c4c(F)cccc4F)n3)ccc2n1C1CCOCC1 [Example 151, 1-(2,6-difluorophenyl)-N-(4-[(7R)-7-amino-5-azaspiro[2.4]heptan-5-yl]-2-methyl-1-(3,4,5,6-tetrahydro-2H-pyran-4-yl)benzo[d]imidazol-5-yl)-6-oxo-1,2-diazine-3-carboxamide]
Cc1nc2c(N3C[C@H](N)C4(CC4)C3)c(NC(=O)c3ccc(=O)n(-c4c(F)cccc4F)n3)ccc2n1[C@H]1CCOC1 [Example 152, N-(4-((R)-7-amino-5-azaspiro[2.4]heptan-5-yl)-2-methyl-1-((S)-tetrahydrofuran-3-yl)-1H-benzo[d]imidazol-5-yl)-1-(2,6-difluorophenyl)-6-oxo-1,6-dihydropyridazine-3-carboxamide]
C[C@@H]1CN(c2c(NC(=O)c3ccc(=O)n(-c4c(F)cccc4F)n3)ccc3c2ncn3C2CCOCC2)C[C@@H]1N [Example 153, N-(4-((3R,4R)-3-amino-4-methylpyrrolidin-1-yl)-1-(tetrahydro-2H-pyran-4-yl)-1H-benzo[d]imidazol-5-yl)-1-(2,6-difluorophenyl)-6-oxo-1,6-dihydropyridazine-3-carboxamide]
CC(C)n1cnc2c(N3C[C@@H](C)[C@@H](N)C3)c(NC(=O)c3ccc(=O)n(-c4c(F)cccc4F)n3)ccc21 [Example 154, N-(4-((3R,4R)-3-amino-4-methylpyrrolidin-1-yl)-1-isopropyl-1H-benzo[d]imidazol-5-yl)-1-(2,6-difluorophenyl)-6-oxo-1,6-dihydropyridazine-3-carboxamide]
Cn1c(C(C)(C)F)nc2c(N3CC[C@@H](N)C3)c(NC(=O)c3ccc(=O)n(-c4c(F)cccc4F)n3)ccc21 [Example 155]
Cn1c(CC(F)(F)F)nc2c(N3CC[C@@H](N)C3)c(NC(=O)c3ccc(=O)n(-c4c(F)cccc4F)n3)ccc21 [Example 156, (R)-N-(4-(3-aminopyrrolidin-1-yl)-1-methyl-2-(2,2,2-trifluoroethyl)-1H-benzo[d]imidazol-5-yl)-1-(2,6-difluorophenyl)-6-oxo-1,6-dihydropyridazine-3-carboxamide]
Cn1c(C(C)(C)F)nc2c(N3CC[C@@H](N)C3)c(NC(=O)c3ccc(=O)n(-c4c(F)cccc4F)n3)cc(F)c21 [Example 157, (R)-N-(4-(3-aminopyrrolidin-1-yl)-7-fluoro-2-(2-fluoropropan-2-yl)-1-methyl-1H-benzo[d]imidazol-5-yl)-1-(2,6-difluorophenyl)-6-oxo-1,6-dihydropyridazine-3-carboxamide]
Cn1c(C(C)(C)C(F)(F)F)nc2c(N3CC[C@@H](N)C3)c(NC(=O)c3ccc(=O)n(-c4c(F)cccc4F)n3)ccc21 [Example 158, (R)-N-(4-(3-aminopyrrolidin-1-yl)-1-methyl-2-(1,1,1-trifluoro-2-methylpropan-2-yl)-1H-benzo[d]imidazol-5-yl)-1-(2,6-difluorophenyl)-6-oxo-1,6-dihydropyridazine-3-carboxamide]
